# Data published in patent US6113907A, “Pharmaceutical grade St. John's Wort” (priority 1997, dated 2000).
# Assays:
# [1] = test system: Receptor tyrosine kinase of epidermal growth factor; conditions: cited from earlier work
# [2] = test system: muscarinic receptor for the central nervous system; experiment: muscarinic receptor for the central nervous system (M1 Central), [3H] QNB, rat cortical membranes; format: binding; conditions: 10^-4; 100 µM
# Procedure: Fourteen additional bioassays were preformed on either extracts, fractions or reference compounds for this botanical. To measure inhibition of [^3 H] PK11195 to the benzodiazepine receptor (BDZ) a partially purified receptor preparation was made from rat kidney membranes. The final radioactive ligand concentration was 1 nM and non-specific binding was measured using 200 nM cold PK11195. The substances, receptor and ligand were reacted in 50 mM Tris-HCL (pH 7.7) at 0-4° C. for 60 minutes. The reaction was terminated by rapid filtration of the samples through glass fiber filters. […] The inhibition of [^3 H] pinrenzepine to the muscarinic M1 receptor (M1) by the substances was measured using a partially purified receptor from bovine striatal membranes. The final hot ligand concentration was 1 nM and non-specific binding was determined in the presence of 100 nM atropine. […] The reactions were terminated by rapid vacuum filtration of the reaction mixture through glass fiber filters. […] To assay for biological activity for the muscarinic receptor for the central nervous system, receptor was partially purified from rat cortical membranes. […] Non-specific binding was determined in the presence of 100 nM atropine. […] Non-specific binding was determined using 1 mM NMDA. […] Non-specific binding was determined using 100 μM AMPA.
structure (smiles),measurement,setting,value
"Cc1cc(O)c2c(=O)c3c(O)cc(O)c4c5c(O)cc(O)c6c(=O)c7c(O)cc(C)c8c1c2c(c34)c(c78)c65 [Hypericin, hypericin]",receptor tyrosine kinase activity of epidermal growth factor,[1],inhibited
same,M1 Central,[2],55%
